Measured values: publication PMC6273621, “Synthesis and the Biological Activity of Phosphonylated 1,2,3-Triazolenaphthalimide Conjugates” (Molecules, 2016)
Like-named read-outs stand apart in the source and are kept apart here.

Key:
TK− VZV strain = test: microbe, parasite or virus in culture; format: cell-based, varicella-zoster virus (VZV) strain 07−1; settings: Human alphaherpesvirus 3, HEL, read-out: Antiviral Activity EC50, TK− VZV Strain, HEL cell cultures; concentration reducing virus plaque formation by 50%
[1] = test system: human cervix carcinoma cells (HeLa); test: Cytostatic activity, HeLa cell proliferation; format: cell-based; settings: 72 h, read-out: IC50 HeLa
Protocol: (§1) All assays were performed in 96-well microtiter plates. To each well were added (5–7.5) × 10^4 tumor cells and a given amount of the test compound. The cells were allowed to proliferate for 48 h (murine leukemia L1210 cells) or 72 h (human lymphocytic CEM and human cervix carcinoma HeLa cells) at 37 °C in a humidified CO2-controlled atmosphere. At the end of the incubation period, the cells were counted in a Coulter counter.

[2] = test system: human dermal microvascular endothelial HMEC-1 cells; test: Cytostatic activity, HMEC-1 cell proliferation; format: cell-based
[3] = test system: human T-lymphocyte (CEM) cells; test: Cytostatic activity, CEM cell proliferation; format: cell-based; settings: CCRF-CEM, 72 h, read-out: IC50 CEM
Protocol: as §1

TK+ VZV strain = test: microbe, parasite or virus in culture; format: cell-based, varicella-zoster virus (VZV) strain Oka; settings: for EC50: Human alphaherpesvirus 3, HEL, read-out: Antiviral Activity EC50, TK+ VZV Strain, HEL cell cultures, concentration reducing virus plaque formation by 50%
HEL cells = test: Cytotoxicity, cell morphology (MCC) in HEL cells; format: cell-based, human; settings: minimum cytotoxic concentration causing microscopically detectable alteration of cell morphology
Description: The cytotoxicity of the tested compounds toward the uninfected host cells was defined as the minimum cytotoxic concentration (MCC) that causes a microscopically detectable alteration of normal cell morphology.

[4] = test system: murine leukemia (L1210) cells; test: Cytostatic activity, L1210 cell proliferation; format: cell-based; settings: Mus musculus, read-out: IC50 L1210
Protocol: as §1

| Structure (SMILES) | EC50 (TK− VZV strain) [µM] | IC50 ([1]; cell proliferation) [µM] | IC50 ([2]; HMEC-1, cell proliferation, read-out: IC50 HMEC-1) [µM] | IC50 ([3]; cell proliferation) [µM] | EC50 (TK+ VZV strain) [µM] | Cytotoxicity, Cell Morphology (MCC) (HEL cells) [μM] | IC50 ([4]; L1210, cell proliferation, 48 h) [µM] | IC50 [1] [µM] | IC50 ([2]; HMEC-1, read-out: IC50 HMEC-1) [µM] | IC50 [3] [µM] | melting point [°C] | IC50 ([4]; L1210, 48 h) [µM] | Potency toward the TK+ VZV strain (in words) (TK+ VZV strain; HEL cell cultures) |
| --- | --- | --- | --- | --- | --- | --- | --- | --- | --- | --- | --- | --- | --- |
| CN(C)CCN1C(=O)c2cccc3cc(N)cc(c23)C1=O [Amonafide, reference compound] | 7.82 | 2 ± 1.2 | 0.31 | 0.54 ± 0.5 | 5.36 | 20 | 1 ± 0.4 | – | – | – | – | – | – |
| CCOP(=O)(CCCn1cc(CN2C(=O)c3cccc4cccc(c34)C2=O)nn1)OCC [Compound 14c, Diethyl 3-{4-[(1,3-Dioxo-1H-benzo[de]isoquinolin-2(3H)-yl)methyl]-1H-1,2,3-triazol-1-yl}propylphosphonate] | 64.5 | – | – | – | > 100 | >100 | – | 172 ± 20 | ≥ 250 | 124 ± 19 | 131 to 132 | ≥ 250 | – |
| CCOP(=O)(CCCCn1cc(CN2C(=O)c3cccc4cccc(c34)C2=O)nn1)OCC [Compound 14d, Diethyl 4-{4-[(1,3-Dioxo-1H-benzo[de]isoquinolin-2(3H)-yl)methyl]-1H-1,2,3-triazol-1-yl}butylphosphonate] | 56.7 | – | – | – | 86.4 | >100 | – | 150 ± 11 | 180 ± 54 | 119 ± 3 | 131 to 132 | 156 ± 40 | – |
| CCOP(=O)(OCC)C(O)Cn1cc(CN2C(=O)c3cccc4cccc(c34)C2=O)nn1 (stereo not drawn) [Compound 14e, Diethyl 2-{4-[(1,3-Dioxo-1H-benzo[de]isoquinolin-2(3H)-yl)methyl]-1H-1,2,3-triazol-1-yl}-1-hydroxyethylphosphonate] | > 100 | – | – | – | 69.9 | >100 | – | ≥ 250 | ≥ 250 | > 250 | 186 to 188 | > 250 | – |
| CCOP(=O)(CCOCCn1cc(CN2C(=O)c3cccc4cccc(c34)C2=O)nn1)OCC [Compound 14h, Diethyl 2-(2-{4-[(1,3-Dioxo-1H-benzo[de]isoquinolin-2(3H)-yl)methyl]-1H-1,2,3-triazol-1-yl}ethoxy)ethylphosphonate] | 74.6 | – | – | – | > 100 | >100 | – | 154 ± 22 | 222 ± 39 | 171 ± 25 | 156 to 158 | 196 ± 32 | – |
| CCOP(=O)(CCn1cc(CN2C(=O)c3cccc4c(Br)ccc(c34)C2=O)nn1)OCC [Compound 15b] | 38.1 | – | – | – | 34.2 | >100 | – | 62 ± 20 | 152 ± 1 | 56 ± 20 | 132 to 134 | 14 ± 1 | – |
| CCOP(=O)(CCCCn1cc(CN2C(=O)c3cccc4c(Br)ccc(c34)C2=O)nn1)OCC [Compound 15d, Diethyl 4-{4-[(6-Bromo-1,3-dioxo-1H-benzo[de]isoquinolin-2(3H)-yl)methyl]-1H-1,2,3-triazol-1-yl}butylphosphonate] | 37.5 | – | – | – | 40.4 | 100 | – | 55 ± 2 | 92 ± 43 | 22 | – | 17 ± 3 | – |
| CCOP(=O)(CC(O)Cn1cc(CN2C(=O)c3cccc4c(Br)ccc(c34)C2=O)nn1)OCC (stereo not drawn) [Compound 15f, Diethyl 3-{4-[(6-Bromo-1,3-dioxo-1H-benzo[de]isoquinolin-2(3H)-yl)methyl]-1H-1,2,3-triazol-1-yl}-2-hydroxypropylphosphonate] | > 100 | – | – | – | 86.4 | >100 | – | 87 ± 21 | 152 ± 1 | 60 ± 13 | 152 to 153 | 23 ± 3 | – |
| CCOP(=O)(CCOCCn1cc(CN2C(=O)c3cccc4c(Br)ccc(c34)C2=O)nn1)OCC [Compound 15h, Diethyl 2-(2-{4-[(6-Bromo-1,3-dioxo-1H-benzo[de]isoquinolin-2(3H)-yl)methyl]-1H-1,2,3-triazol-1-yl}ethoxy)ethylphosphonate] | 70.8 | – | – | – | 37.1 | >100 | – | 61 ± 15 | 151 | 29 ± 11 | 92 to 93 | 26 ± 2 | – |
| CCOP(=O)(Cn1cc(CN2C(=O)c3cccc4cc([N+](=O)[O-])cc(c34)C2=O)nn1)OCC [Compound 16a, Diethyl {4-[(5-Nitro-1,3-dioxo-1H-benzo[de]isoquinolin-2(3H)-yl)methyl]-1H-1,2,3-triazol-1-yl}methylphosphonate] | 64.5 | – | – | – | 39.1 | >100 | – | 44 ± 19 | 154 ± 1 | 69 ± 1 | 147 to 148 | 66 ± 7 | – |
| CCOP(=O)(CCn1cc(CN2C(=O)c3cccc4cc([N+](=O)[O-])cc(c34)C2=O)nn1)OCC [Compound 16b, Diethyl 2-{4-[(5-Nitro-1,3-dioxo-1H-benzo[de]isoquinolin-2(3H)-yl)methyl]-1H-1,2,3-triazol-1-yl}ethylphosphonate] | 27.6 | – | – | – | > 100 | 100 | – | 54 ± 21 | 118 ± 71 | 176 ± 37 | – | > 250 | no potency |
| CCOP(=O)(CCCn1cc(CN2C(=O)c3cccc4cc([N+](=O)[O-])cc(c34)C2=O)nn1)OCC [Compound 16c, Diethyl 3-{4-[(5-Nitro-1,3-dioxo-1H-benzo[de]isoquinolin-2(3H)-yl)methyl]-1H-1,2,3-triazol-1-yl}propylphosphonate] | 47.8 | – | – | – | 32.8 | >100 | – | 29 ± 17 | 136 ± 22 | 55 ± 23 | 113 to 114 | 34 ± 9 | – |
| CCOP(=O)(CCCCn1cc(CN2C(=O)c3cccc4cc([N+](=O)[O-])cc(c34)C2=O)nn1)OCC [Compound 16d, Diethyl 4-{4-[(5-Nitro-1,3-dioxo-1H-benzo[de]isoquinolin-2(3H)-yl)methyl]-1H-1,2,3-triazol-1-yl}butylphosphonate] | 53.9 | – | – | – | 29.9 | >100 | – | 81 ± 4 | 126 ± 37 | 95 ± 4 | 150 to 151 | 70 ± 52 | – |
| CCOP(=O)(CCOCCn1cc(CN2C(=O)c3cccc4cc([N+](=O)[O-])cc(c34)C2=O)nn1)OCC [Compound 16h, Diethyl 2-(2-{4-[(5-Nitro-1,3-dioxo-1H-benzo[de]isoquinolin-2(3H)-yl)methyl]-1H-1,2,3-triazol-1-yl}ethoxy)ethylphosphonate] | 64.5 | – | – | – | 40.9 | >100 | – | 56 ± 16 | 152 ± 1 | 66 | – | 64 ± 11 | – |
| CCOP(=O)(CNC(=O)Cn1cc(CN2C(=O)c3cccc4cc([N+](=O)[O-])cc(c34)C2=O)nn1)OCC [Compound 16i, Diethyl 2-{4-[(5-Nitro-1,3-dioxo-1H-benzo[de]isoquinolin-2(3H)-yl)methyl]-1H-1,2,3-triazol-1-yl}acetamido-methylphosphonate] | – | – | – | – | – | – | – | 86 ± 6 | > 250 | > 250 | 217 to 219 | > 250 | – |
